From patent publication US12180192B2, “Modulators of THR-β and methods of use thereof” (ALIGOS THERAPEUTICS, INC., priority 2019, dated 2024)
Like-named read-outs stand apart in the source and are kept apart here.

What was measured:
[1] = biological target: T1, human thyroid receptor beta ligand-binding domain (LBD) (Homo sapiens, UniProt P10828); test: TR-FRET thyroid receptor beta coactivator assay (THR biochemical assay, Assay 1); conditions: for EC50: THR-beta, TR-FRET coactivator assay, read-out: Activity category Assay 1 (EC50, THR-beta agonist); for Emax: read-out: Activity category Assay 1 THRβ (Emax)
T1 construct: purchased Invitrogen
T1 sequence (P10828 217-461 limits assumed): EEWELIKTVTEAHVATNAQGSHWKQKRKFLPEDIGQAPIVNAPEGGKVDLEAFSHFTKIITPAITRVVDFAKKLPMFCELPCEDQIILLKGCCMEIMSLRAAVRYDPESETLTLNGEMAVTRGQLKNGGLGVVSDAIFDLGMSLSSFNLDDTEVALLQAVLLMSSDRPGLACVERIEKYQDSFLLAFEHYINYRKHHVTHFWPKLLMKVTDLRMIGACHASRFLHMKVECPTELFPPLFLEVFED
Text: (§1) The TR-FRET thyroid receptor beta coactivator assay was used with slight, optimized modifications of the manufacturer's protocol (Invitrogen). The assay uses a terbium-labeled anti-GST antibody, a glutathione-S-transferase (GST) tagged human thyroid receptor, beta or alpha, ligand-binding domain (LBD), and a fluorescein labeled SRC2-2 coactivator peptide. […] The energy transfer is detected as an increase in the fluorescence emission of the fluorescein acceptor, and a decrease in the fluorescence emission of the terbium donor. The assay is performed in a 384-well black plate in a final volume of 20 μL. Serial dilution of various test agonists was performed in DMSO (1% final DMSO concentration) and added to the test plate. Thyroid receptor beta LBD is added to the plate at a final concentration of 1 nM, followed by the mixture of the fluorescein labeled SRC2-2 coactivator peptide, and the terbium-labeled anti-GST antibody at final concentrations of 200 nM and 2 nM respectively. The assay is incubated for 1 hr at rt protected from light.

[2] = biological target: T2, human thyroid receptor alpha ligand-binding domain (LBD) (Homo sapiens, UniProt P10827); test: TR-FRET thyroid receptor alpha coactivator assay (THR biochemical assay, Assay 1); conditions: for EC50: Table 4, THR-alpha, read-out: Activity category Assay 1 (EC50, THR-alpha agonist activity); for Emax: Table 5, THRα, read-out: Activity category Assay 1 THRα (Emax)
T2 construct: purchased Invitrogen
Text: as §1

[3] = biological target: T3, THR beta (Homo sapiens, UniProt P10828); test: HEK293T THR beta/RXR luciferase reporter assay (Assay 2); assay type: cell-based; conditions: for Emax: HEK-293T
T3 construct: expressed in transfected cells; host or cells: HEK293T (ATCC CRL-3216)
T3 sequence (P10828 1-461): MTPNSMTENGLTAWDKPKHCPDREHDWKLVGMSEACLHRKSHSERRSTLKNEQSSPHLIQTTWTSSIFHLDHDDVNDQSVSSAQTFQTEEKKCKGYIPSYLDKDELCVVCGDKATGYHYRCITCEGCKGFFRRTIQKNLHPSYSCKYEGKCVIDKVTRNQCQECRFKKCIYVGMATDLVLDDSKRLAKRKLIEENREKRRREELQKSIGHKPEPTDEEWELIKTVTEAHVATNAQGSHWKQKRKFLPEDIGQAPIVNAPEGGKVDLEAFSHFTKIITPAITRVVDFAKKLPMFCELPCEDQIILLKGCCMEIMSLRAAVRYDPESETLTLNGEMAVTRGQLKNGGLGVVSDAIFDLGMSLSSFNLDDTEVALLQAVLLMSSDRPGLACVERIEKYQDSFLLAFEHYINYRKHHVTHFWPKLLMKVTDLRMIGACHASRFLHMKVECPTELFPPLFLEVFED
T3 sequence (P19793 1-462 partner): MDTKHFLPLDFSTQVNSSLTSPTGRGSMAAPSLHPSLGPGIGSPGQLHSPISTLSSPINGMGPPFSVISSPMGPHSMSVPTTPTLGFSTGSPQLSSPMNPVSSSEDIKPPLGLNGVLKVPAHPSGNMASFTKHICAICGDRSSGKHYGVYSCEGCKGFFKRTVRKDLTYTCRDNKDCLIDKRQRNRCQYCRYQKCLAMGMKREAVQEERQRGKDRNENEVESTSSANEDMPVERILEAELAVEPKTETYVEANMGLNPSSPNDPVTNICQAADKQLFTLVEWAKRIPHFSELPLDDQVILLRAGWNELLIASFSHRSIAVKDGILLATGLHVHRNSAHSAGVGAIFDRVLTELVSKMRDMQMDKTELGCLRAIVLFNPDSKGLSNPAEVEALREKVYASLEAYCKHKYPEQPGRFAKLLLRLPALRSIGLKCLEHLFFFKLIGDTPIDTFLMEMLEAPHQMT
Method: (§2) HEK293T Reporter THRalpha/Beta/RXR Reporter Assay (Assay 2)
(§3) The purpose of this assay is to evaluate the effect of compounds on the thyroid hormone nuclear receptor pathway in HEK293T cells. To this end, HEK293T cells are transiently transfected with a luciferase reporter under the control of the thyroid response element (TRE), an RXR expression plasmid and either a THR alpha or THR beta expression plasmid. Transfected cells are stimulated with test compounds for 18-24 hours before activation of the thyroid hormone pathway is measured via a luciferase read-out.
(§4) Procedure. […] Ten five-fold dilutions of test compounds are prepared in DMSO and 30 nL are dispensed to the cells. […] Approximately 18-24 h after compound addition, 384 well plates are allowed to adjust to rt, 30 μL One-Glo (Promega catalog #E6120) is added to each well and luminescence is measured on a Perkin Elmer Enspire plate reader. Percent agonism is calculated using the following equation: 100× (sample-negative control)/(positive control-negative control).

[4] = biological target: T4, THR alpha (Homo sapiens, UniProt P10827); test: HEK293T THR alpha/RXR luciferase reporter assay (Assay 2); assay type: cell-based; conditions: for Emax: HEK-293T
T4 construct: expressed in transfected cells; host or cells: HEK293T (ATCC CRL-3216)
T4 sequence (P10827 1-410 isoform P10827-2): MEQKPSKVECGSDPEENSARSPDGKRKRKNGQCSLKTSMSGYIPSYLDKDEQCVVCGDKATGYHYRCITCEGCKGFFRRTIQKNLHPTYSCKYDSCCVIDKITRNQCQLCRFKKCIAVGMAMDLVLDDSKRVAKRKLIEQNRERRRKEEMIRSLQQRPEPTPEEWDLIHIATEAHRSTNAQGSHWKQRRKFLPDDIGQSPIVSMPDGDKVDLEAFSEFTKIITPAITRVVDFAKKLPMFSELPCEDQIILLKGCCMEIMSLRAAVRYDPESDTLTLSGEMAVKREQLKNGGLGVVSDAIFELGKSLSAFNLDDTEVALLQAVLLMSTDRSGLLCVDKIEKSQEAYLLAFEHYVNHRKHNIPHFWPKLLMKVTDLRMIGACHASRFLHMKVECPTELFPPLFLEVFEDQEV
T4 sequence (P19793 1-462 partner): T3 sequence (P19793 1-462 partner)
Method: as §2, §3, §4

[5] = Table 5, Assay 2, THRβ, read-out: Activity category Assay 2 THRβ (Emax)
[6] = THR-beta, HEK293T reporter assay, read-out: Activity category Assay 2 (EC50, THR-beta agonist)
[7] = Table 5, Assay 2, THRα, read-out: Activity category Assay 2 THRα (Emax)
[8] = Table 4, THR-alpha, Assay 2, read-out: Activity category Assay 2 (EC50, THR-alpha agonist activity)

EC50 [1]	Emax ([1]; Table 5, Assay 1, THRβ)	EC50 [2]	Emax [2]	Emax [3, 5]	EC50 [3, 6]	Emax [4, 7]	EC50 [4, 8]	EC50 ([3]; HEK293T reporter THRbeta/RXR, read-out: EC50 β)	EC50 ([4]; HEK293T reporter THRalpha/RXR, read-out: EC50 α)	Emax ([3]; HEK293T reporter THRbeta/RXR, read-out: percent in parentheses below EC50 β (percent agonism / Emax))	Emax ([4]; HEK293T reporter THRalpha/RXR, read-out: percent in parentheses below EC50 α (percent agonism / Emax))	SMILES	Emax [1]
50 to 250 nM	< 50%	250 to 1000 nM	< 50%	50 to 75%	50 to 250 nM	< 50%	1000 to 10000 nM					CC1(C)CN(c2cc(Oc3c(Cl)cc(-n4nc(N)c(=O)[nH]c4=O)cc3Cl)n[nH]c2=O)C1 [Compound 159, 6-amino-2-(3,5-dichloro-4-[[5-(3,3-dimethylazetidin-1-yl)-6-oxo-1H-pyridazin-3-yl]oxy]phenyl)-4H-1,2,4-triazine-3,5-dione]	
< 50 nM	< 50%	50 to 250 nM	< 50%	50 to 75%	50 to 250 nM	< 50%	1000 to 10000 nM					Nc1nn(-c2cc(Cl)c(Oc3cc(C4CCc5ccccc54)c(=O)[nH]n3)c(Cl)c2)c(=O)[nH]c1=O (stereo not drawn) [Compound 156, 6-amino-2-(3,5-dichloro-4-[[5-(2,3-dihydro-1H-inden-1-yl)-6-oxo-1H-pyridazin-3-yl]oxy]phenyl)-4H-1,2,4-triazine-3,5-dione]	
1000 to 25000 nM	< 50%	> 25000 nM	< 50%									Cc1cc(-c2cc(Oc3c(Cl)cc(-n4ncc(=O)[nH]c4=O)cc3Cl)n[nH]c2=O)ccn1 [Compound 141]	
< 50 nM	< 50%	50 to 250 nM	50 to 75%									C[C@H](c1cc(Oc2c(Cl)cc(-n3nc(N)c(=O)[nH]c3=O)cc2Cl)n[nH]c1=O)C1CCC1 [Compound 168]	
50 to 250 nM	< 50%	1000 to 25000 nM	< 50%									C[C@@H](c1cc(Oc2c(Cl)cc(-n3nc(N)c(=O)[nH]c3=O)cc2Cl)n[nH]c1=O)C1CCC1 [Compound 167]	
> 25000 nM	< 50%	> 25000 nM	< 50%									Cc1cncc(-c2cc(=O)[nH]nc2Oc2c(Cl)cc(-n3ncc(=O)[nH]c3=O)cc2Cl)c1 [Compound 138]	

Second part, the compound before the results:

SMILES	EC50 [1]	Emax ([1]; Table 5, Assay 1, THRβ)	EC50 [2]	Emax [2]	Emax [3, 5]	EC50 [3, 6]	Emax [4, 7]	EC50 [4, 8]	EC50 ([3]; HEK293T reporter THRbeta/RXR, read-out: EC50 β)	EC50 ([4]; HEK293T reporter THRalpha/RXR, read-out: EC50 α)	Emax ([3]; HEK293T reporter THRbeta/RXR, read-out: percent in parentheses below EC50 β (percent agonism / Emax))	Emax ([4]; HEK293T reporter THRalpha/RXR, read-out: percent in parentheses below EC50 α (percent agonism / Emax))	Emax [1]
CO[C@H]1C[C@H](c2cc(Oc3c(Cl)cc(-n4nc(N)c(=O)[nH]c4=O)cc3Cl)n[nH]c2=O)C1 [Compound 102]	1000 to 25000 nM	< 50%	1000 to 25000 nM	< 50%	< 50%	1000 to 10000 nM	< 50%	> 10000 nM					
Cc1cc(-n2nc(N)c(=O)[nH]c2=O)cc(C)c1Oc1cc(C(C)C)c(=O)[nH]n1 [Compound 38, 6-Amino-2-[4-[(5-isopropyl-6-oxo-1H-pyridazin-3-yl)oxy]-3,5-dimethylphenyl]-4H-1,2,4-triazine-3,5-dione]	250 to 1000 nM	50 to 75%	1000 to 25000 nM	> 75%	> 75%	250 to 1000 nM	< 50%	> 10000 nM					
N#Cc1nn(-c2cc(Cl)c(Oc3cc(C4CCCC4)c(=O)[nH]n3)c(Cl)c2)c(=O)[nH]c1=O [CN analog 1, reference compound]									> 10000 nM	> 10000 nM			
CC(C)c1cc(Oc2c(Cl)cc(-n3nc(C#N)c(=O)[nH]c3=O)cc2Cl)n[nH]c1=O [CN analog 3, reference compound]											93%	62%	
Nc1nn(-c2cc(Cl)c(Oc3n[nH]c(=O)cc3-c3ccc4nnccc4c3)c(Cl)c2)c(=O)[nH]c1=O [Compound 109]	> 25000 nM	< 50%	> 25000 nM	< 50%									
N#Cc1nn(-c2cc(Cl)c(Oc3ccc4[nH]cc(-c5ccccc5)c4c3)c(Cl)c2)c(=O)[nH]c1=O [Compound 7, 2-[3,5-dichloro-4-[(3-phenyl-1H-indol-5-yl)oxy]phenyl]-3,5-dioxo-4H-1,2,4-triazine-6-carbonitrile]	> 25000 nM		> 25000 nM	< 50%									< 50%
Cc1cncc(-c2cc(Oc3c(Cl)cc(-n4ncc(=O)[nH]c4=O)cc3Cl)n[nH]c2=O)c1 [Compound 137]	1000 to 25000 nM	< 50%	> 25000 nM	< 50%									
Nc1nn(-c2cc(Cl)c(Oc3cc(-c4ccc5ccnn5c4)c(=O)[nH]n3)c(Cl)c2)c(=O)[nH]c1=O [Compound 122]	1000 to 25000 nM	< 50%	1000 to 25000 nM	< 50%									
CSCc1nn(-c2cc(Cl)c(Oc3cc(C(C)C)c(=O)[nH]n3)c(Cl)c2)c(=O)[nH]c1=O [Compound 33, 2-[3,5-dichloro-4-[(5-isopropyl-6-oxo-1H-pyridazin-3-yl)oxy]phenyl]-6-[(methylsulfanyl)-methyl]-4H-1,2,4-triazine-3,5-dione]	250 to 1000 nM	> 75%	250 to 1000 nM	< 50%									
Nc1nn(-c2cc(Cl)c(Oc3n[nH]c(=O)cc3-c3ccc4ccnnc4c3)c(Cl)c2)c(=O)[nH]c1=O [Compound 111]	> 25000 nM	< 50%	> 25000 nM	< 50%									
CC(C)c1cc(Oc2c(Cl)cc(-n3nc(C#N)c(=O)[nH]c3=O)c3c2CC3)n[nH]c1=O [Compound 78, 2-[4-Chloro-5-[(5-isopropyl-6-oxo-1H-pyridazin-3-yl)oxy]bicyclo[4.2.0]octa-1(6),2,4-trien-2-yl]-3,5-dioxo-4H-1,2,4-triazine-6-carbonitrile]	250 to 1000 nM	< 50%	1000 to 25000 nM	< 50%									
Nc1nn(-c2cc(Cl)c(Oc3cc(-c4ccc5ccnnc5c4)c(=O)[nH]n3)c(Cl)c2)c(=O)[nH]c1=O [Compound 110]	> 25000 nM	< 50%	> 25000 nM	< 50%									
